The values below come from ChEMBL document CHEMBL5325437, “Shifting the selectivity of pyrido[2,3-d]pyrimidin-7(8H)-one inhibitors towards the salt-inducible kinase (SIK) subfamily” (Eur J Med Chem, 2023).

For test [1], the target named is Serine/threonine-protein kinase 26 (Homo sapiens) (UniProt Q9P289). The test can be described thus: Binding affinity to recombinant MST4 (unknown origin) assessed as stabilization by measuring change in melting temperature at 10 uM by SYPRO orange dye based differential scanning fluorimetry assay.
Test [2] has as its target T1, Mitogen-activated protein kinase 8 (Homo sapiens, UniProt P45983). The test can be described thus: Inhibition of full length NanoLuc fused JNK1 (unknown origin) transfected in HEK293T cells using NanoBRET NanoGlo substrate incubated for 2 hrs in presence of tracer by NanoBRET assay. The test is classed as cell-based. Background: BRET reads energy transfer from a luciferase to a nearby fluorophore.

Test [3] deals with Ephrin type-B receptor 2 (Homo sapiens, UniProt P29323). The test can be described thus: Inhibition of full length NanoLuc fused EPHB2 (unknown origin) transfected in HEK293T cells using NanoBRET NanoGlo substrate incubated for 2 hrs in presence of tracer by NanoBRET assay. In kind it is cell-based.
Test [4] deals with T2, Serine/threonine-protein kinase 3 (Homo sapiens) (UniProt Q13188).
T2 sequence (whole entry): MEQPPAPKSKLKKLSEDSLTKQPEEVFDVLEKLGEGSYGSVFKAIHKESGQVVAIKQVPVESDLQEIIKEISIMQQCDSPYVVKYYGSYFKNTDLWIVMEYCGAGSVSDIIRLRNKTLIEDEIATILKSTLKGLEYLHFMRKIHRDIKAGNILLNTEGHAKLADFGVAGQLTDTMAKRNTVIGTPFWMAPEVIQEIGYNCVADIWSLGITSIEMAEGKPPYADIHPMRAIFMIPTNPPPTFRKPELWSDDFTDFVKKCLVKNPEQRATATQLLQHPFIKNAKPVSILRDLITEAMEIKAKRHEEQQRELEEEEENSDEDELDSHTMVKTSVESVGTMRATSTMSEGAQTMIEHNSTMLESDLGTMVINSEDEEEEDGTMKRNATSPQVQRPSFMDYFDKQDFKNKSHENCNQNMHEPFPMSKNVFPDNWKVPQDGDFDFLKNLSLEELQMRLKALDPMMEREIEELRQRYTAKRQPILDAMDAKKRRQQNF
The test can be described thus: Binding affinity to recombinant MST2 (unknown origin) assessed as stabilization by measuring change in melting temperature at 10 uM by SYPRO orange dye based differential scanning fluorimetry assay. (In DSF a fluorescence change marks the thermal transition of the protein.)

The nature of test [5]: Binding affinity to recombinant RSK1b (unknown origin) assessed as stabilization by measuring change in melting temperature at 10 uM by SYPRO orange dye based differential scanning fluorimetry assay. The note with it: Homo sapiens.
Test [6] deals with Ephrin type-B receptor 3 (Homo sapiens, UniProt P54753). The test can be described thus: Inhibition of full length NanoLuc fused EPHB3 (unknown origin) transfected in HEK293T cells using NanoBRET NanoGlo substrate incubated for 2 hrs in presence of tracer by NanoBRET assay. In kind it is cell-based.
Test [7] addresses T1, Mitogen-activated protein kinase 8. The test can be described thus: Binding affinity to recombinant JNK1 (unknown origin) assessed as stabilization by measuring change in melting temperature at 10 uM by SYPRO orange dye based differential scanning fluorimetry assay.
Test [8] deals with Serine/threonine-protein kinase SIK2 (Homo sapiens) (UniProt Q9H0K1). The test can be described thus: Inhibition of recombinant human GST-tagged SIK2 assessed as downregulation of SIK2 phosphorylation at Ser358 incubated for 30 mins by Western blotting analysis.
For test [9] the target is unchanged. The test can be described thus: Inhibition of SIK2 in human SK-OV-3 cells assessed as upregulation of PLK expression level at 5 uM incubated for 48 hrs by Western blotting analysis. In kind it is cell-based.

Active and inactive are the calls of the source. The calls are words filed in the database; no cut-off is given here.

T1 sequence (P45983 whole entry, the tested form may be a part): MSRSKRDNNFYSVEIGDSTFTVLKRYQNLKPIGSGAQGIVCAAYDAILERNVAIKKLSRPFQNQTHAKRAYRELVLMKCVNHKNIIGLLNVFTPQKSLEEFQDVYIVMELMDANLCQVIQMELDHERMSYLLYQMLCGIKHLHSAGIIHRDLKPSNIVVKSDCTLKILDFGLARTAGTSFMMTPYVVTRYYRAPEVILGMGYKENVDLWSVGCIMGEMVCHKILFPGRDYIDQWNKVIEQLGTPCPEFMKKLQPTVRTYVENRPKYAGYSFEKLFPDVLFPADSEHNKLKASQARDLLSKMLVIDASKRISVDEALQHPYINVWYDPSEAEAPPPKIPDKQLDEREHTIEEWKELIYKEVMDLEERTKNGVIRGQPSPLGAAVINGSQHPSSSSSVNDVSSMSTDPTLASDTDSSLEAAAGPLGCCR
Sequence of Serine/threonine-protein kinase SIK2 (Homo sapiens) (Q9H0K1 whole entry, looked up): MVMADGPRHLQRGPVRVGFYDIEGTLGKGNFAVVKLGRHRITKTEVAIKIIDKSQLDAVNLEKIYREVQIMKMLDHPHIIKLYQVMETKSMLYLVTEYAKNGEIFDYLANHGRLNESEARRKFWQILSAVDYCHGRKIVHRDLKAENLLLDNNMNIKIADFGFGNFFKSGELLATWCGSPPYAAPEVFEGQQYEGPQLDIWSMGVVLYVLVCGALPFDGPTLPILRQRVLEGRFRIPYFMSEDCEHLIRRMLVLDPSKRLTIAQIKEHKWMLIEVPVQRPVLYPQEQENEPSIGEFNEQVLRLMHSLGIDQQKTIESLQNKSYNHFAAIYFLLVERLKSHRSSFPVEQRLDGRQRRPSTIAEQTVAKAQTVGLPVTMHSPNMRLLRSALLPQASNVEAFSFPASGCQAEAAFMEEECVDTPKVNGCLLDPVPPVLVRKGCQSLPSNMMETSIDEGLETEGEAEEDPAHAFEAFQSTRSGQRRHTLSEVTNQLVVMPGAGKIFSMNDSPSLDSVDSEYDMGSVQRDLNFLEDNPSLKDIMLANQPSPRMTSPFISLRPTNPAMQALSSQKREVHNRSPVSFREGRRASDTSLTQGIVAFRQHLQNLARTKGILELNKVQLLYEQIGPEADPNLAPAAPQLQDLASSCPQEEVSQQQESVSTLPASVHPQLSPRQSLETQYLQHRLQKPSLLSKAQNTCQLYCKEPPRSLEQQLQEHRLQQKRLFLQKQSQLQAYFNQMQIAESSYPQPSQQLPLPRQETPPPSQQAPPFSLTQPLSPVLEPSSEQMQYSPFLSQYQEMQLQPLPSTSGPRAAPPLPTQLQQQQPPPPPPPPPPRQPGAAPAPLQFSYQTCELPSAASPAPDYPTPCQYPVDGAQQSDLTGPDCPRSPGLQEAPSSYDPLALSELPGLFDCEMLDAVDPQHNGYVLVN
Sequence of Ephrin type-B receptor 3 (P54753 whole entry, the tested form may be a part): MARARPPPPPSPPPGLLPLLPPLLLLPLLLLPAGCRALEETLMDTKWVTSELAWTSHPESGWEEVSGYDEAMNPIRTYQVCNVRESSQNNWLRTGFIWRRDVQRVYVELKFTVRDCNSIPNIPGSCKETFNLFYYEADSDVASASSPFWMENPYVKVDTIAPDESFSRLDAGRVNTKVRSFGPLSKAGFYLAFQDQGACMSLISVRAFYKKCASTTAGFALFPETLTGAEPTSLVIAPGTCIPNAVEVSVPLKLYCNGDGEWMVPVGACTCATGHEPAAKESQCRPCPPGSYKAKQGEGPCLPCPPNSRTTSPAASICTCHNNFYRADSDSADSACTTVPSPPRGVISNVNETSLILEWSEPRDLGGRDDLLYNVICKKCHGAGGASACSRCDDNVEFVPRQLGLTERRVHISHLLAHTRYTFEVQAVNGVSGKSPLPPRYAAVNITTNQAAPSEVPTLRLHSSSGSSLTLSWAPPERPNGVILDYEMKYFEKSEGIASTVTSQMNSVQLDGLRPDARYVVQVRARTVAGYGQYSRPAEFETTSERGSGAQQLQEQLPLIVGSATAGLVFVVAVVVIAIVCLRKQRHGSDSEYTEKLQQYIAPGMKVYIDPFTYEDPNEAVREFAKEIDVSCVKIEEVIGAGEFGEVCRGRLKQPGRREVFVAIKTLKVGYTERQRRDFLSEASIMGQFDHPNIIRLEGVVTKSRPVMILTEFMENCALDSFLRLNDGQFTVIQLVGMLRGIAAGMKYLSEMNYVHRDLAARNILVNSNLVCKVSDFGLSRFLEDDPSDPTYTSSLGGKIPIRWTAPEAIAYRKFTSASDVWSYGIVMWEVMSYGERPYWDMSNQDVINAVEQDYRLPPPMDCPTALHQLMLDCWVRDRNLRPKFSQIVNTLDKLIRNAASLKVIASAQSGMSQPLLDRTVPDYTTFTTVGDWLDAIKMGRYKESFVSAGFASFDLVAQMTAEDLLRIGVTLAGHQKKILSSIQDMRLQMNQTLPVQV
Sequence of Ephrin type-B receptor 2 (P29323 whole entry, the tested form may be a part): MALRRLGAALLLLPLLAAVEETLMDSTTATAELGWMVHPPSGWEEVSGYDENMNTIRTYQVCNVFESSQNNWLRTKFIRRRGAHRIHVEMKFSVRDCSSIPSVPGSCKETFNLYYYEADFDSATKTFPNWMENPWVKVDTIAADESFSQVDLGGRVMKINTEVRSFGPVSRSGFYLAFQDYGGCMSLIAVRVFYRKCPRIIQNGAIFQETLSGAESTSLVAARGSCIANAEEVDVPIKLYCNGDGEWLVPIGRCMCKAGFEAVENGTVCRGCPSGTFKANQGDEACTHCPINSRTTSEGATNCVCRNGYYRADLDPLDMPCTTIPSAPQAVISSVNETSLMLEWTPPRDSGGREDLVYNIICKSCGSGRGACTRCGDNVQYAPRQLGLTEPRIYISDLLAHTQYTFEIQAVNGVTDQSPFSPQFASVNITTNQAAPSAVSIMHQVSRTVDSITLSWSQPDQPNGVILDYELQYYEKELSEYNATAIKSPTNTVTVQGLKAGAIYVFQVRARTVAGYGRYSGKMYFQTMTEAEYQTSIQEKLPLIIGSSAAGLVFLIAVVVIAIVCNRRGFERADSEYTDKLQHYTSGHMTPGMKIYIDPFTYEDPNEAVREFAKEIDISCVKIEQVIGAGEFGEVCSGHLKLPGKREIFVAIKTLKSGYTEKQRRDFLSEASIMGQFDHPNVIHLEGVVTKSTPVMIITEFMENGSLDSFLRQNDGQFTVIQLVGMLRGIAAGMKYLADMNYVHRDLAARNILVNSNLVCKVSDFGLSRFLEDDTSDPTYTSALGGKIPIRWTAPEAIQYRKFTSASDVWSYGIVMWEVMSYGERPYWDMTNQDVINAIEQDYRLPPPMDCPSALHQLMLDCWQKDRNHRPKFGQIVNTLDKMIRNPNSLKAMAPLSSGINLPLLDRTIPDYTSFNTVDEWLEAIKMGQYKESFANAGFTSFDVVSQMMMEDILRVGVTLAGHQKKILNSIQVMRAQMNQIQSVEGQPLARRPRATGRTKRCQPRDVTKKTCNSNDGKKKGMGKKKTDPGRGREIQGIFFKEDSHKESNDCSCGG
Sequence of Serine/threonine-protein kinase 26 (Homo sapiens) (Q9P289 2-416 limits assumed): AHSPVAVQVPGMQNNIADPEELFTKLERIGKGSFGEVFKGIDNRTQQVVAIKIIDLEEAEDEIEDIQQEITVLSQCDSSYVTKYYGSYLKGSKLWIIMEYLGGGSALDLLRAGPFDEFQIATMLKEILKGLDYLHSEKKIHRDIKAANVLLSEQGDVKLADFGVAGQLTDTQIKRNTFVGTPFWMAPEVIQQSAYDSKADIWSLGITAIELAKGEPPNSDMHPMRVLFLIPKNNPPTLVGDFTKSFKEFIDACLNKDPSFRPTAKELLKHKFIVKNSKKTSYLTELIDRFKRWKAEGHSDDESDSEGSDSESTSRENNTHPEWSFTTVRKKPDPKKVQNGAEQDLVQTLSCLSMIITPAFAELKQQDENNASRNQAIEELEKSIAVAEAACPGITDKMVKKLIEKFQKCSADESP

As to `CNc1ncc2cc(-c3cc(F)ccc3F)c(=O)n(CCCCN)c2n1`, the thermal shift (ΔTm) – broadly, the shift of the melting midpoint relative to a reference – in test [1] was determined as 0.9 °C; in test [4], 0.6 °C; in [5], 15.1 °C; in [7], 7.3 °C. For the same compound, the half-maximal inhibitory concentration (IC50) (as a rule, the concentration needed to halve the response being measured) in [2] was 23.2 µM; in test [3] it was 22.6 µM; in test [6], 18.3 µM. Besides, the inhibition entry in test [8] is “Dose-Dependent Effect”. For the same compound, the inhibition result in test [9] is “Active”.
